# Tested on: iPSC-derived cortical neurons
# Type: cell-based
# [1] = responders vs non-responders after 10 μM Bupropion, p<0.01
# [2] = responders vs non-responders, 10 μM Bupropion, NS
# [3] = responders vs non-responders, 10 μM Bupropion, p<0.01
structure (smiles),measurement,setting,value
"CC(NC(C)(C)C)C(=O)c1cccc(Cl)c1 (stereo not drawn) [Bupropion, 3-Chloro-N-tert-butyl-β-keto-α-methylphenethylamin]",logFC PLCH2,[1],−1.051
same,logFC PLD5,[1],−1.909
same,logFC PLEKHD1,[1],−3.283
same,logFC PLPP4,[1],−0.9989
same,logFC PODN,[1],−1.12
same,logFC POLR2J3,[1],−0.756
same,logFC POU4F1,[1],−1.728
same,logFC PRCD,[1],−1.032
same,logFC PRPH,[1],−2.033
same,logFC PRSS33,[1],−1.593
same,logFC PSD4,[1],−0.7234
same,logFC PSMB8,[1],−1.14
same,logFC PSMB9,[1],−1.682
same,logFC PTGDS,[1],−1.612
same,logFC PTGER2,[1],−2.59
same,logFC RAB42,[1],−0.5093
same,logFC RBMS3,[1],−0.8065
same,logFC RBP1,[1],−0.6676
same,logFC RPH3A,[1],−2.057
same,logFC RSAD2,[1],−1.646
same,logFC S100B,[1],−1.744
same,logFC SAMD9,[1],−1.373
same,logFC SAMD9L,[1],−1.954
same,logFC SH3TC2,[1],−1.437
same,logFC SKOR2,[1],−2.986
same,logFC SLC2A1,[1],−0.6362
same,logFC SLC4A4,[1],−1.35
same,logFC SLC38A3,[1],−0.8613
same,logFC SMPD1,[1],−0.5833
same,logFC SST,[1],−1.012
same,logFC SUN2,[1],−0.4523
same,logFC SUSD1,[1],−0.629
same,logFC SYNC,[1],−1.688
same,logFC TAF1C,[1],−0.387
same,logFC TAP1,[1],−0.8369
same,logFC TAP2,[1],−0.8068
same,logFC TBC1D2,[1],−0.6958
same,logFC TF,[1],−1.257
same,logFC THBS2,[1],−1.7
same,logFC TLR6,[1],−1.138
same,logFC TLX1,[1],−2.764
same,logFC TLX3,[1],−1.593
same,logFC TMC3,[1],−2.021
same,logFC TMEM175,[1],−0.5016
same,logFC TMEM176A,[1],−1.203
same,logFC TMEM176B,[1],−1.184
same,logFC TNFRSF14,[1],−1.091
same,logFC TRAF1,[1],−0.9274
same,logFC TREM1,[1],−2.481
same,logFC TRIM8,[1],−0.2802
same,logFC TRMT9B,[1],−0.6888
same,logFC TRPV2,[1],−1.594
same,logFC TSHZ3,[1],−1.109
same,logFC USH1C,[1],−1.858
same,logFC USP18,[1],−0.9659
same,logFC VLDLR,[1],−0.4024
same,logFC VSTM2B,[1],−1.079
same,logFC ZFPM1,[1],−0.5127
same,logFC ZNF575,[1],−0.87
same,logFC ADAMTS9 expression,[2],0.9659
same,logFC ADGRE5 expression,[2],0.9432
same,logFC AMMECR1 expression,[2],0.7173
same,logFC ANKRD1 expression,[2],2.712
same,logFC ANKRD18A expression,[2],1.155
same,logFC ANKRD33B expression,[2],0.8016
same,logFC ANLN expression,[2],0.911
same,logFC AP3B1 expression,[2],0.7614
same,logFC ARHGAP10 expression,[2],1.24
same,logFC ARHGAP11A expression,[2],0.7121
same,logFC ARHGAP19 expression,[2],0.5865
same,logFC ARL11 expression,[2],0.8189
same,logFC BAX expression,[2],0.4774
same,logFC BUB1 expression,[2],0.6384
same,logFC C18orf54 expression,[2],0.7328
same,logFC CD53 expression,[2],1.712
same,logFC CDCA7 expression,[2],0.949
same,logFC CDK1 expression,[2],0.9851
same,logFC CDV3 expression,[2],0.7482
same,logFC CENPA expression,[2],1.025
same,logFC CENPH expression,[2],0.8278
same,logFC CENPW expression,[2],0.7956
same,logFC CHEK2 expression,[2],0.7669
same,logFC CHMP4C expression,[2],0.6773
same,logFC CHTF18 expression,[2],0.4356
same,logFC CKS1B expression,[2],0.5869
same,logFC CKS2 expression,[2],0.7778
same,logFC CNN1 expression,[2],0.8796
same,logFC COL17A1 expression,[2],1.832
same,logFC CPVL expression,[2],0.8555
same,logFC CRYZ expression,[2],1.044
same,logFC CSF3R expression,[2],2.81
same,logFC DAG1 expression,[2],0.5339
same,logFC DCP2 expression,[2],0.7702
same,logFC DEPDC1 expression,[2],1.005
same,logFC DHRS2 expression,[2],3.271
same,logFC DIAPH3 expression,[2],0.9363
same,logFC DLGAP5 expression,[2],0.8304
same,logFC DLX4 expression,[2],1.485
same,logFC DLX5 expression,[2],2.138
same,logFC DNMBP expression,[2],0.5323
same,logFC DSG2 expression,[2],0.746
same,logFC DSG3 expression,[2],2.297
same,logFC DSP expression,[2],1.327
same,logFC DUSP6 expression,[2],0.9289
same,logFC EDA2R expression,[2],0.569
same,logFC EFHD1 expression,[2],0.872
same,logFC EGLN3 expression,[2],1.216
same,logFC ELK3 expression,[2],0.9378
same,logFC EME1 expression,[2],0.7814
same,logFC EPHA7 expression,[2],1.592
same,logFC ERLIN1 expression,[2],0.5945
same,logFC ESAM expression,[2],1.688
same,logFC EXOC3L2 expression,[2],1.012
same,logFC FAM72A expression,[2],1.123
same,logFC FAM72B expression,[2],0.9318
same,logFC FAS expression,[2],1.079
same,logFC FBXO5 expression,[2],0.7533
same,logFC FGF23 expression,[2],1.468
same,logFC FNDC1 expression,[2],0.9667
same,logFC FOSL1 expression,[2],1.137
same,logFC FOXL1 expression,[2],1.191
same,logFC FUT10 expression,[2],0.6404
same,logFC GNPNAT1 expression,[2],1.06
same,logFC GTF2H3 expression,[2],0.8228
same,logFC HACD2 expression,[2],0.8389
same,logFC HAT1 expression,[2],0.7547
same,logFC HDAC1 expression,[2],0.4991
same,logFC HHIPL2 expression,[2],1.368
same,logFC HIBADH expression,[2],0.5725
same,logFC HMGB2 expression,[2],0.5953
same,logFC HMMR expression,[2],0.9939
same,logFC HNMT expression,[2],1.877
same,logFC IMPACT expression,[2],0.7315
same,logFC INPP5D expression,[2],1.208
same,logFC IQGAP3 expression,[2],0.6692
same,logFC ITGA2 expression,[2],0.6822
same,logFC KIAA1217 expression,[2],0.8875
same,logFC KIF2C expression,[2],0.6989
same,logFC KIF11 expression,[2],0.7863
same,logFC KIF14 expression,[2],0.7995
same,logFC KIF20B expression,[2],0.8251
same,logFC KIF23 expression,[2],0.7114
same,logFC KRT8 expression,[2],1.26
same,logFC KRT18 expression,[2],1.596
same,logFC L2HGDH expression,[2],0.7542
same,logFC LAMC1 expression,[2],0.8644
same,logFC LPP expression,[2],0.7521
same,logFC LRP4 expression,[2],1.051
same,logFC LRRC15 expression,[2],0.6532
same,logFC LTA4H expression,[2],0.6494
same,logFC MAD2L1 expression,[2],0.8373
same,logFC MAN2A1 expression,[2],0.8316
same,logFC MATN3 expression,[2],0.9618
same,logFC MDM2 expression,[2],0.6788
same,logFC MELK expression,[2],0.849
same,logFC MGST1 expression,[2],0.9354
same,logFC MICB expression,[2],0.9474
same,logFC MSX2 expression,[2],1.687
same,logFC MT1E expression,[2],0.1751
same,logFC MTBP expression,[2],0.7803
same,logFC MUC4 expression,[2],0.8705
same,logFC NDC1 expression,[2],0.8188
same,logFC NDC80 expression,[2],0.8291
same,logFC NEMP1 expression,[2],0.791
same,logFC NGF expression,[2],0.7928
same,logFC NLRP1 expression,[2],1.235
same,logFC NOSTRIN expression,[2],1.169
same,logFC NPPB expression,[2],1.671
same,logFC NUF2 expression,[2],0.7214
same,logFC NUP37 expression,[2],0.7592
same,logFC NUPR1 expression,[2],1.745
same,logFC ORC6 expression,[2],0.8019
same,logFC PADI1 expression,[2],0.9659
same,logFC PGM2 expression,[2],0.8787
same,logFC PLAU expression,[2],2.302
same,logFC PMP22 expression,[2],1.525
same,logFC POLQ expression,[2],0.7494
same,logFC PPP1R13L expression,[2],0.8159
same,logFC PRDX6 expression,[2],0.5898
same,logFC PROCR expression,[2],1.393
same,logFC PRR11 expression,[2],0.6089
same,logFC PTGR1 expression,[2],0.6824
same,logFC PYGL expression,[2],0.8577
same,logFC RAD51AP1 expression,[2],1.085
same,logFC RBMS1 expression,[2],0.7861
same,logFC RPL22L1 expression,[2],1.141
same,logFC RPS27L expression,[2],0.7459
same,logFC RREB1 expression,[2],0.5116
same,logFC RRM2B expression,[2],0.7867
same,logFC RUNX2 expression,[2],0.8924
same,logFC S1PR5 expression,[2],1.906
same,logFC SELENOV expression,[2],0.8135
same,logFC SEM1 expression,[2],0.5019
same,logFC SEPSECS expression,[2],0.7254
same,logFC SEPTIN10 expression,[2],0.7236
same,logFC SERPINE1 expression,[2],2.019
same,logFC SESN1 expression,[2],0.7238
same,logFC SFT2D1 expression,[2],0.6487
same,logFC SLC22A31 expression,[2],0.9625
same,logFC SLC47A1 expression,[2],2.056
same,logFC SPDL1 expression,[2],0.7492
same,logFC SPOCD1 expression,[2],1.33
same,logFC SPP1 expression,[2],1.215
same,logFC STIL expression,[2],0.759
same,logFC STX3 expression,[2],0.5017
same,logFC SWAP70 expression,[2],0.8869
same,logFC TAF4B expression,[2],0.9582
same,logFC TFPI2 expression,[2],1.367
same,logFC TGIF1 expression,[2],0.8371
same,logFC TM7SF3 expression,[2],0.5627
same,logFC TMTC1 expression,[2],1.156
same,logFC TNFRSF10D expression,[2],0.8463
same,logFC TNFRSF12A expression,[2],0.7449
same,logFC TOP2A expression,[2],0.7201
same,logFC TPM1 expression,[2],0.7857
same,logFC TRAM2 expression,[2],0.5417
same,logFC TRIAP1 expression,[2],0.7343
same,logFC TTK expression,[2],0.82
same,logFC UBE2C expression,[2],0.5692
same,logFC USP28 expression,[2],0.4989
same,logFC USP53 expression,[2],0.8262
same,logFC VRK1 expression,[2],0.7229
same,logFC VWDE expression,[2],1.176
same,logFC WEE1 expression,[2],1.13
same,logFC WNT9B expression,[2],0.5972
same,logFC WWC2 expression,[2],0.7083
same,logFC XPO1 expression,[2],0.7396
same,logFC YBX3 expression,[2],0.5165
same,logFC ZGRF1 expression,[2],0.9121
same,logFC ZIC2 expression,[2],0.7767
same,logFC ADAL expression,[3],0.3007
same,logFC ANKRD27 expression,[3],0.3035
same,logFC ARHGEF26 expression,[3],0.4633
same,logFC ATAD5 expression,[3],0.5442
same,logFC BAG4 expression,[3],0.4071
same,logFC CCDC150 expression,[3],0.6042
same,logFC CDH6 expression,[3],0.9224
same,logFC CHML expression,[3],0.4888
same,logFC DHFR expression,[3],0.5987
same,logFC DLX2 expression,[3],0.9412
same,logFC DMRTA1 expression,[3],0.858
same,logFC DNA2 expression,[3],0.5431
same,logFC EIF1AX expression,[3],0.5493
same,logFC F8 expression,[3],0.4608
same,logFC FBXO22 expression,[3],0.2957
same,logFC FREM2 expression,[3],0.865
same,logFC GPC3 expression,[3],1.257
same,logFC HAUS6 expression,[3],0.5025
same,logFC HLA-DMA expression,[3],0.9185
same,logFC ITGA6 expression,[3],0.5208
